Results taken from PubChem BioAssay AID720570 (Broad Institute, 2013).

System: TC71 Ewing sarcoma viability, CellTiter-Glo ATP, 72 h
Assay: TC71 Ewing sarcoma cell killing, confirmation, luminescence, cherry-picked samples, retest (AID 720570)

SMILES	AC35 [µM]
O=C(N/N=C/c1ccc[nH]1)c1cc(-c2ccc(Cl)cc2)nc2ccccc12	15.2
COc1ccc(-c2cnc3c(NC=O)cc(-c4ccccc4OC)cn23)cc1OC	0.147
N#C[C@H]1N[C@H](CO)[C@H]1c1ccc(C#Cc2ccc(F)cc2)cc1	18.3
Cc1noc(C)c1C(=O)Nc1sccc1C(N)=O	13.6
Cc1cccc(/C=C(\c2nc3ccccc3[nH]2)S(=O)(=O)c2ccccc2)c1	9.6
C(=Cc1cnc2ccccc2n1)c1ccc2c(c1)OCO2	15.2
O=C(/C=C/c1cc(Br)ccc1O)c1ccco1	16.7
CCC1=Nc2cc(C(=O)NCC3CCCO3)ccc2Sc2ccc(Br)cc21 (stereo not given)	6.83
CN1C(=O)c2cc(NC(=O)c3ccc(C(F)(F)F)cc3)ccc2OC[C@@H]2O[C@@H](CC(=O)NC3Cc4ccccc4C3)CC[C@H]21	4.86
CC1(C)N=C(N)N=C(N)N1c1ccc(OCCCOc2ccccc2)c(Cl)c1	4.91
Oc1cccc(-c2nnc(-c3cccc(O)c3)nn2)c1	21.3
CCCCCCCCNC(C)C(O)c1ccc(SC(C)C)cc1 (stereo not given)	12.1
CCCCCCCCCCCCCCCCn1cc[n+](C)c1	10.2
C[C@@H]1CN([C@@H](C)CO)C(=O)c2cccc(N(C)C)c2O[C@@H]1CN(C)Cc1ccc(C(=O)Nc2ccccc2N)cc1	21.1
Cc1cc(C(=O)Nc2ccc3c(c2)C(=O)N(C)[C@@H]2CC[C@H](CC(=O)N[C@H](C)c4ccccc4)O[C@H]2CO3)no1	14
OCC1OC(n2cnc3c(NCc4ccco4)ncnc32)C(O)C1O (stereo not given)	7.82
C[C@@H]1O[C@@H](O[C@H]2C[C@@H](O)[C@]3(CO)[C@H]4[C@H](O)C[C@]5(C)[C@@H](C6COC(=O)C6)CC[C@]5(O)[C@@H]4CC[C@]3(O)C2)[C@H](O)[C@H](O)[C@H]1O (stereo not given in full)	4.19
OC[C@H]1[C@@H](c2ccc(C#CC3CCCC3)cc2)[C@@H]2CN(CCC(F)(F)F)CCCCN12	18

SMILES	AC35 [µM]
C[C@H]1CN([C@@H](C)CO)C(=O)c2cc(NS(=O)(=O)c3ccc(Cl)cc3)ccc2O[C@H]1CN(C)Cc1ccc(C(=O)Nc2ccccc2N)cc1	14.7
COc1cc(-c2coc3c(C(=O)NCc4ccc(C(F)(F)F)cc4)cccc23)ccc1O	4.09
COc1ccc(-c2ccc3c(c2)[C@H]2[C@H](CCN2S(=O)(=O)c2ccc(OC)cc2)[C@@H](CO)N3C)cc1	4.48
C[C@@H]1CN([C@H](C)CO)C(=O)c2cc(NS(=O)(=O)c3ccc(Cl)cc3)ccc2O[C@@H]1CN(C)Cc1ccc(Cl)c(Cl)c1	21.5
COc1ccc(C(C)(O)c2nc(-c3cccc(F)c3)cs2)cc1 (stereo not given)	12.8
COc1ccccc1C(CCNCc1ccc(N(C)C)cc1)c1ccc(OC(C)C)cc1 (stereo not given)	10.9
Cc1nc(N)nc(N)c1/C=C/C(C)(C)c1ccc(Cl)cc1	< 0.011
C[C@@H]1CN([C@@H](C)CO)C(=O)c2cccc(NC(=O)CCCCCC(=O)Nc3ccccc3N)c2O[C@@H]1CN(C)Cc1ccc(Oc2ccccc2)cc1	10.6
Cc1cc2c(C(C)C)c(O)c(O)c(C=O)c2c(O)c1-c1c(C)cc2c(C(C)C)c(O)c(O)c(C=O)c2c1O	5.02
C[C@H](CO)N1C[C@H](C)[C@H](CN(C)Cc2ccc(C(=O)Nc3ccccc3N)cc2)Oc2ccc(NC(=O)C3CC3)cc2CC1=O	9.49
COC(=O)C[C@@H]1CC[C@@H]2[C@H](COc3ccc(NC(=O)c4ccc(C(F)(F)F)cc4)cc3C(=O)N2C)O1	9.91
CN(C)c1ccc(-c2ccnc3c2CC(C)(C(=O)NCc2ccco2)O3)cc1 (stereo not given)	10.4
O=C(Nc1ccc(F)cc1)N1CCCCN2[C@@H](CO)[C@H](c3ccc(C4=CCCCC4)cc3)[C@@H]2C1	22.4
CC(=O)OC1CC2(O)C3CCC4CC(O)CCC4(C)C3CCC2(C)C1C1=CC(=O)OC1 (stereo not given)	0.797
O=C(NC(c1ccc(F)cc1)c1ccc2ccccc2n1)C1CCN(Cc2cccc(C(F)(F)F)c2)CC1 (stereo not given)	11.2
CO[C@H]1CN(C)C(=O)c2cc(NC(=O)NC(C)C)ccc2OC[C@H](C)N(Cc2ccc(-c3ccccn3)cc2)C[C@@H]1C	20.8
CCc1nc(N)nc(N)c1-c1ccc(Cl)cc1	6.12
